“Also recorded” adds a separate entry of the source.
How the values were obtained:
[1] = test system: p-ERK in human cutaneous neurofibroma explants; experiment: Human cutaneous neurofibroma explant p-ERK suppression (Biological Example 7); format: cell-based; conditions: topical gel formulation (1%), harvested at 4 hours, vs vehicle gel
Source text: The primary objective was to assess the efficacy of a topically-formulated compound described herein in suppressing p-ERK, a downstream biomarker of RAS/MAPK signaling in neurofibroma explants. The secondary objectives was to assess permeability (where the compound was applied topically) of neurofibroma explants treated with a compound described herein.
Primary dermal neurofibromas or cutaneous neurofibromas were obtained from patients with clinical or genetic diagnoses of NF1. Discarded human neurofibromas samples were obtained from the Stanford Surgery Clinic, using an approved human subjects protocol (Stanford IRB #18325). Specimens were identified under the direction of the Principal Investigator and placed in cell proliferation media (DMEM/F12 containing penicillin/streptomycin (0.1%); fungizone (40 μg/mL); B27 (without vitamin A).
Specimens were identified under the direction of the Principal Investigator
Specimens were chopped into 2 mm fragments and placed in 24-well plates containing cell proliferation media (DMEM/F12 containing penicillin/streptomycin (0.1%); fungizone (40 μg/mL); B27 (without vitamin A) and submerged in media with drug. For topical gel application, samples were placed in 96 well plates with epidermal surface exposed to air. […]

MAP2K1 (MEK1) = target: T1, MAP2K1 (MEK1) (Homo sapiens, UniProt Q02750); experiment: MEK Inhibition Assay (Biological Example 1b, Z'-LYTE); conditions: Biological Example 1b (compounds 1, 3, 5, 7-8); read-out: Assay 1: biochemical MEK IC50
T1 construct: purchased ThermoFisher
T1 sequence (Q02750 whole entry): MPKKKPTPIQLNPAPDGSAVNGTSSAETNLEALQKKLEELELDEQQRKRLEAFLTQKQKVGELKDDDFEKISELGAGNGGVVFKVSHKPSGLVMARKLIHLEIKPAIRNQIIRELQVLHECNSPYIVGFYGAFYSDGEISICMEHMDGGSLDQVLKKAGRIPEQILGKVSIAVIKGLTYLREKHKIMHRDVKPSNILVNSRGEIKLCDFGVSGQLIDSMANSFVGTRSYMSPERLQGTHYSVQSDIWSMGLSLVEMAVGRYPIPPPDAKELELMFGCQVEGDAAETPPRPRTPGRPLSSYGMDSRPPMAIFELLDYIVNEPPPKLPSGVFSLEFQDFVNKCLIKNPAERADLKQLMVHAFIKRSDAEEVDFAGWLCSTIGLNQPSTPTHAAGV
Description: MEK1 inhibitory activity of compounds were tested using the following procedure (protocol available at thermofisher.com/content/dam/LifeTech/migration/files/drug-discovery/pdfs.par.60256.file.dat/20130430%20ssbk%20customer%20protocol%20and%20assay%20conditions.pdf). The Z′-LYTE biochemical assay (ThermoFisher) employs a fluorescence-based, coupled-enzyme format and is based on the differential sensitivity of phosphorylated and non-phosphorylated peptides to proteolytic cleavage.
Test compounds in 100% DMSO were screened in 1% DMSO (final) in the well. For 10 point titrations, 3-fold serial dilutions are conducted from the starting concentration of 30 μM.
After the 1 hour incubation, 5 μL of a 1:1024 dilution of Development Reagent A (available from Invitrogen, catalog no. PV3295) was added.
ATP solutions were diluted to a 4× working concentration in Kinase Buffer (50 mM HEPES pH 7.5, 0.01% BRIJ-35, 10 mM MgCl2, 1 mM EGTA). ATP Km apparent was previously determined using a Z′-LYTE assay. The Development Reagent was diluted in Development Buffer (available from Invitrogen, catalog no. P3127).
Assay Protocol: 2.5 μL of 4× test compound or 100 nL of 100× Test Compound plus 2.4 μL Kinase Buffer, 5 μL of the 2× Peptide/Kinase Mixture, 2.5 μL of 4×ATP Solution were added to the plates and placed on a shake plate for 30-seconds. The kinase reaction was allowed to proceed for 60-minute at room temperature, before 5 μL of Development Reagent Solution was added, and the mixture agitated for 30-seconds on a shake plate. The mixture was incubated for 60-minute at room temperature. Fluorescence was measured using a plate reader and the data were analyzed.
This control yielded 100% cleaved peptide in the Development Reaction. The 100% Phosphorylation Control, which consisted of a synthetically phosphorylated peptide of the same sequence as the peptide substrate, was designed to allow for the calculation of percent phosphorylation. This control yielded a very low percentage of cleaved peptide in the Development Reaction. The 0% Phosphorylation and 100% Phosphorylation Controls allow for the calculation of the percent phosphorylation achieved in a specific reaction well.
The minimum emission ratio in a screen was established by the 0% Inhibition Control, which contained active kinase. This control was designed to produce a 10-50% phosphorylated peptide in the Kinase Reaction. Cascade assays may produce up to 70% phosphorylated peptide.
A known inhibitor control standard curve, 10 point titration, was run for each individual kinase on the same plate as the kinase to ensure the kinase was inhibited within an expected IC50 range previously determined.
The following controls are prepared for each concentration of Test Compound assayed. […] The expected value for a non-interfering compound should be 100%. Any value outside of 90% to 110% was flagged. […] The expected value for a non-fluorescence compound should be 0%. Any value >20% was flagged.
The data in Table A was calculated. XLfit from IDBS was used. The dose response curve was curve fit to model number 205 (sigmoidal dose-response model).

[2] = S9 Stability Assay, human liver S9 fraction; format: in vitro ADME
Description: Compounds were assessed for metabolic stability in human skin by assessing their rate of disappearance from human S9 skin fraction. Similarly, compounds were assessed for metabolic stability in human liver by assessing their rate of disappearance from human S9 liver fraction. The protocol below can be used to assess the difference between skin and hepatic metabolism.
The assay was carried out in 96-well microtiter plates at 37° C. Reaction mixtures (25 μL) contained a final concentration of 1 μM test compound, 2 mg/mL liver or skin S9 protein, and 1 mM NADPH in buffer (100 mM potassium phosphate, pH 7.4 buffer with 1 mM EDTA, 3 mM MgCl2). At each of the time points (0, 15, 30, and 60 minutes), 150 μL of quench solution (100% acetonitrile with 0.1% formic acid) with internal standard was transferred to each well. Besides the zero minute controls, mixtures containing the same components except the NADPH were also prepared as the negative control. Verapamil or testosterone was included as a positive control to verify assay performance. Plates were sealed and centrifuged at 4° C. for 15 minutes at 4000 rpm. The supernatant was transferred to fresh plates for LC/MS/MS analysis.
All samples were analyzed on LC/MS/MS using an AB Sciex API 4000 instrument, coupled to a Shimadzu LC-20AD LC Pump system. Analytical samples were separated using a Waters Atlantis T3 dC18 reverse phase HPLC column (20 mm×2.1 mm) at a flow rate of 0.5 mL/min. The mobile phase consisted of 0.1% formic acid in water (solvent A) and 0.1% formic acid in 100% acetonitrile (solvent B).
The extent of metabolism was calculated as the disappearance of the test compound, compared to the 0-min control reaction incubations. Initial rates were calculated for the compound concentration and used to determine t1/2 values and subsequently, the intrinsic clearance, CLint=(0.693) (1/t1/2 (min)) (mL incubation/mg of S9 protein).

C57BL/6J mice = experiment: In vivo mouse model of skin and systemic toxicity (Biological Example 6b); conditions: topically applied 1%, twice daily 5 days per week
Description: These mice are also shaved weekly.
Biological Example 6b was carried out with the following arms: oral vehicle, oral Trametinib, topical vehicle, and topical Trametinib (1%).

SMILES | p-ERK in human cutaneous neurofibroma explants [1] | IC50 (MAP2K1 (MEK1)) [nM] | Assay 5: human liver S9 intrinsic clearance value (μL/min/mg protein) ([2]; human liver S9) | half-life at 1 μM ([2]; pH 7.4, Table 1, human liver S9 fraction, 1 μM test compound, 2 mg/mL S9 protein, NADPH, read-out: Liver S9 t1/2) [min] | microsomal CLint at 1 μM ([2]; pH 7.4, Table 1, human liver S9 fraction, read-out: CLint (μL/min/mg protein)) [µL/min/mg] | toxicity of topical application (C57BL/6J mice)
O=C(NOCCO)c1c(Nc2ccc(I)cc2F)sc2ncc(F)cc12 [Ex. 8, 2-((2-Fluoro-4-iodophenyl)amino)-N-(2-hydroxyethoxy)-5-fluorothieno[2,3-b]pyridine-3-carboxamide] | suppression of p-ERK | 256 | 57.15 | 6 | 57.1 | 
CC(=O)Nc1cccc(-n2c(=O)n(C3CC3)c(=O)c3c(Nc4ccc(I)cc4F)n(C)c(=O)c(C)c32)c1 [trametinib] |  |  |  |  |  | found dead, or had to be sacrificed due to unacceptable weight loss; also recorded: significant toxicity

From patent US11542271B2, “Fused heteroaromatic-aniline compounds for treatment of dermal disorders” (NFlection Therapeutics, Inc., priority 2017, dated 2023)
